These results are taken from patent US11117876B2, “Crystalline form of ozanimod hydrochloride, and processes for preparation thereof” (RECEPTOS, LLC, priority 2017, dated 2021).

The term solubility denotes the concentration that dissolves in the medium under given conditions. As usually defined, the Solubility is the concentration that dissolves in the medium under given conditions. Low values mean little dissolved substance, high ones much dissolved substance.

“Also recorded” adds a separate entry of the source. Where a name gives a salt, the structure may show the parent alone.

Holding throughout (format): physicochemical
Data set [1] in a line: Long-term and accelerated stability of Form CS2 (XRPD and HPLC purity after storage). The note with it: 7 weeks, open dish, hydrochloride. The text has this: X-ray powder diffraction pattern in the present disclosure was acquired by a Panalytical Empyrean X-ray powder diffractometer. The parameters of the X-ray powder diffraction method of the present disclosure were as follows: • X-ray Reflection: Cu, Kα. • Kα1 (Å): 1.540598; Kα2 (ÅA): 1.544426 • Kα2/Kα1 intensity ratio: 0.50 • Voltage: 45 (kV) • Current: 40 (mA) • Scan range: from 3.0 to 40.0 degree
High Performance Liquid Chromatography (HPLC) data for purity test in example 4 of the present disclosure were collected from an Agilent 1260 with UV Variable Wavelength Detector (VWD). The HPLC method parameters are as follows: • Column: Waters XBridge C18 150×4.6 mm, 5 μm • Mobile Phase: A: 0.1% TFA in H2O • B: 0.1% TFA in Acetonitrile
• Flow rate: 1.0 mL/min • Injection Volume: 10 μL • Detection wavelength: 270 nm • Column Temperature: 40° C. • Diluent: MeOH/THF (v/v, 6/4)
Three solid samples of Form CS2 were stored under the conditions of 25° C./60% RH, 40° C./75% RH and 60° C./75% RH for 7 weeks in open dishes. XRPD of the samples was tested and the physical stability results are shown in FIG. 7 (from top to bottom: XRPD pattern of Form CS2 before and after being stored under the conditions of 25° C./60% RH, 40° C./75% RH and 60° C./75% RH for 7 weeks). Chemical purity of Form CS2 was tested after stored under the conditions of 25° C./60% RH and 40° C./75% RH for 7 weeks and the results are shown in Table 4.

Data set [2] is described as follows: Dynamic solubility of Form CS2 in SGF, FeSSIF, FaSSIF and water. Conditions: for solubility at 1 h / solubility at 4 h / solubility at 24 h: thermodynamic from solid. Here is the method: High Performance Liquid Chromatography (HPLC) data for solubility test in example 5 of the present disclosure were collected from an Agilent 1100 with Diode Array Detector (DAD). The HPLC method parameters are as follows: • Column: L005# Waters Xbridge C18, 150×4.6 mm, 5 μm • Mobile Phase: A: 0.1% TFA in H2O • B: 0.1% TFA in Acetonitrile
• Flow rate: 1.0 ml/min • Injection Volume: 5 μl • Detection wavelength: 270 nm • Column Temperature: 40° C. • Diluent: MeOH/THF (v/v, 6/4)
Simulated gastrointestinal fluids such as SGF (Simulated gastric fluids), FaSSIF (Fasted state simulated intestinal fluids) and FeSSIF (Fed state simulated intestinal fluids) are biorelevant media. Solubility in such media is closer to that in human environment, which can reflect the effects of gastrointestinal environment on drug release better.
20 mg of Form CS2 was suspended into 1.5 mL of SGF, 1.5 mL of […], 1.5 mL of […] and 1.5 mL of water to get saturated solutions. After equilibrated for 1 h, 4 h and 24 h, concentrations (mg/mL) of the saturated solutions were measured by HPLC.

Data set [3] is described as follows: Mechanical stability of Form CS2 (manual grinding, XRPD). Conditions: ground manually for 5 minutes in a mortar. Here is the method: Solid sample of Form CS2 was ground manually for 5 minutes in a mortar. The XRPD comparison pattern of Form CS2 before and after grinding is depicted in FIG. 8.
Data set [4] in a line: Hygroscopicity of Form CS2 by dynamic vapor sorption (DVS). Conditions: for Weight gain under 80% RH: 25° C., hydrochloride. On the procedure:
Dynamic Vapor Sorption (DVS) is measured via a SMS (Surface Measurement Systems Ltd.) intrinsic DVS instrument. Its control software is DVS-Intrinsic control software, and its analysis software is DVS-Intrinsic Analysis software. Typical Parameters for DVS test are as follows: • Temperature: 25° C. • Gas and flow rate: N2, 200 mL/min • dm/dt: 0.002%/min • RH range: 0% RH to 95% RH
Dynamic vapor sorption (DVS) was applied to test hygroscopicity of Form CS2 with about 10 mg of sample. The DVS plot of Form CS2 is depicted in FIG. 9.

Data set [5] is described as follows: Particle size distribution of Form CS2 (laser particle size analyzer). Conditions: wet mode, Isopar G. On the procedure: The particle size distribution data in the present disclosure were acquired by an S3500 laser particle size analyzer of Microtrac. Microtrac S3500 is equipped with an SDC (Sample Delivery Controller). The test is carried out in wet mode, and the dispersion medium is Isopar G. The parameters are as follows:
10-30 mg of Form CS2 and 10 mL of Isopar G (containing 0.2% lecithin) were mixed thoroughly and then transferred into the SDC. The measurement was started when the sample amount indicator is in appropriate position. The average particle diameter calculated by volume, the diameter at which 10% mass is comprised of smaller particles, the diameter at which 50% mass is comprised of smaller particles and the diameter at which 90% mass is comprised of smaller particles were obtained in particle size distribution test.
Explanation of the abbreviations used in the present invention is as follows: • MV: Average particle diameter calculated by volume. • D10: the size in microns below which 10 percent of the particles reside on a volume basis. • D50: the size in microns below which 50 percent of the particles reside on a volume basis, also known as the median diameter. • D90: the size in microns below which 90 percent of the particles reside on a volume basis.

Setting [6] is: FaSSIF (fasted state simulated intestinal fluid), FaSSIF.
The mark [7] stands for this setting: FeSSIF (fed state simulated intestinal fluid), FeSSIF.

Turning to `CC(C)Oc1ccc(-c2nc(-c3cccc4c3CC[C@@H]4NCCO)no2)cc1C#N` [Form CS2, ozanimod hydrochloride], the “Crystalline form change after storage (XRPD)” value in data set [1] (25° C./60% RH), in data set [1] (40° C./75% RH) and in data set [1] (60° C./75% RH) was “no form change; also recorded: doesn't change” throughout. The solubility at 1 h in data set [2] (setting [6]) is 3000 µg/mL; in data set [2] (setting [7]), 300 µg/mL. Besides, the solubility at 4 h in data set [2] (FaSSIF (fasted state simulated intestinal fluid), FaSSIF, 4 h) is 3000 µg/mL; in data set [2] (FeSSIF (fed state simulated intestinal fluid), FeSSIF, 4 h) it was 280 µg/mL; in data set [2] (water, H2O, 4 h) it was 2200 µg/mL. The solubility at 24 h in data set [2] (setting [6]) was 3100 µg/mL; in data set [2] (setting [7]), 320 µg/mL; in data set [2] (SGF (simulated gastric fluid), simulated gastric fluid, SGF), 240 µg/mL; in data set [2] (water, H2O), 2400 µg/mL. In data set [2] (SGF, 4 h), the Solubility was 210 µg/mL. In data set [2] (in SGF, FeSSIF, FaSSIF and H2O), the “Solubility (in words)” value was “high”. The “Crystalline form change after grinding (XRPD)” value in data set [3] is “doesn't change”. Also, the “Weight gain under 80% RH” value in data set [4] and in data set [4] (listed as Form CS2 of ozanimod hydrochloride) was 2.34% each time. Besides, the “Hygroscopicity (in words)” value in data set [4] (80% RH) is “low”. Also, the D10 in data set [5] turned out to be 7.6 μm. In data set [5], this molecule gave a D50 of 44.90 μm. Moreover, the D90 in data set [5] is listed as 149.4 μm. In data set [5], the “Particle size distribution (in words)” value is reported as “uniform”. For the same molecule, the “MV (average particle diameter calculated by volume)” value in data set [5] (hydrochloride) was “about 64.22 μm”; in data set [5] (listed as CS2, hydrochloride), 64.22 μm.
